From patent publication US8008077B2, “Photochemical internalization for delivery of molecules into the cytosol” (priority 2000, dated 2011)

Columns and labels:
HCT 116 cells [1] = test: Light-induced (PCI) transfection of HCT 116 cells with pEGFP-N1/polylysine complex, GFP expression by flow cytometry; type: cell-based, human
Description: (§1) The human melanoma cell line THX was established from tumour tissue obtained from a patient treated for metastatic malignant melanoma at the Norwegian Radium Hospital (Aamdal et al., 1986., Int. J. Cancer, 37, 579), and grown in RMPI 1640 (Gibco-BRL) supplemented with 10% FCS (Gibco-BRL) and 2 mM glutamine (Gibco-BRL). The human colon carcinoma cell line HCT 116 was obtained from American Type Culture Collection (ATCC no. CCL-247) and grown in RPMI 1640 medium supplemented with 10% foetal calf serum, 100 U/ml penicillin, […] streptomycin and 2 mM glutamine (all Gibco BRL, Paisley, UK).
Two different light sources were used for treatment of the cells, both consisting of a bank of 4 fluorescent tubes. Cells treated with TPPS4, TPPS2a, and 3-THPP (Porphyrin Products, Logan, Utah) were exposed to blue light (model 3026; Appl. Photophysics, London, UK) with a light intensity reaching the cells of 1.5 mW/cm^2 while cells treated with AlPcS2a (Porphyrin Products, Logan, Utah) were exposed to red light (Philips TL 20W/09) filtered through a Cinemoid 35 filter with a light intensity reaching the cells of 1.35 mW/cm^2.
[…] The cells were treated with pEGFP-N1 polylysine complex for 4 hours immediately before or after exposure to light. […]
(§2) The cells were trypsinized, centrifuged, resuspended in 400 μl of culture medium and filtered through a 50 μm mesh nylon filter. Then the cells were analyzed by a FACS-Calibur (Becton Dickinson) flow cytometer. […] Fluorescein-fluorescence (for example green Fluorescent protein (GFP)) was measured through a 510-530 nm filter after excitation with an argon laser (200 mW) tuned on 488 nm. AlPcS2a was measured through a 670 nm longpass filter after excitation with a diode laser (50 mW) tuned on 635 nm. […] The data were analysed with CELLQuest Software (Becton Dickinson).
The cells were treated with pEGFP-N1/polylysine complex for 4 hours immediately before or after exposure to light as indicated on FIG. 2. The expression of GFP was measured by flow cytometry 2 days after the light exposure. […]

THX cells [2] = test: Light-induced (PCI) transfection of THX cells with pEGFP-N1/polylysine complex, GFP expression by flow cytometry; type: cell-based, human; details: for "light before" approach compared with "light after" approach, poly-L-lysine mediated transfection: photosensitiser 2 μg/ml TPPS2a or 75 μg/ml TPPS4, pEGFP-N1/PLL complex 4 h
Description: as §1
Two different light sources were used for treatment of the cells, both consisting of a bank of 4 fluorescent tubes. […]
as §2
THX cells were treated with 20 μg/ml AlPcS2a for 18 hours, washed and incubated in sensitizer-free medium for 3 hours followed by 1 hour incubation with 5 μg pEGFP-N1/polylysine complex before light exposure for 1, 2, 3 or 4 minutes. […] GFP expression was analysed by flow cytometry 48 hours after light exposure. […]
THX cells were treated with 20 μg/ml AlPcS2a for 18 hours, washed and incubated in sensitizer-free medium for 4 hours before 3 minutes of light treatment. […] GFP expression was analysed by flow cytometry 48 hours after light exposure. […]

[3] = system: WiDr human adenocarcinoma; test: PCI with gelonin for treatment of tumours in a mouse in vivo model; set-up: species or system Balb/c (nu/nu) mice; details: for effect on tumour cure, in words: gelonin alone; for % TUMOUR-FREE MICE 30 DAYS AFTER ILLUMINATION / FRACTION TUMOUR-FREE MICE 30 DAYS AFTER ILLUMINATION: AlPcS2a 10 mg/kg i.p., gelonin 50 μg intratumorally where given
Description: Water and food was given ad libitum. All procedures involving mice were carried out in agreement with the protocols approved by the animal care committee at the Norwegian Radium Hospital, under control by the National Ethical Committee's guidelines on animal welfare. The mice were on average 20-25 g (5-8 weeks old) at the start of the experiments, and we used at least 5 mice per experiment group. The WiDr human adenocarcinoma used in the present study, was propagated by serial transplantation into the Balb/c (nu/nu) mice. The tumours were minced to homogeneity by a scalpel and 20 μl of the solution injected subcutaneously on the right hip of each mouse. The tumour size was measured two or three times per week by measuring two perpendicular diameters. Tumour volume was calculated using the following formula: V=(W^2×L)/2 where W is the width and L the length diameters of the tumours measured. Treatment
A stock solution of AlPcS2a was diluted to 1.25 mg/ml in PBS and injected intraperitoneally to a final concentration of 10 mg/kg when the tumours had reached a volume of approximately 100 mm^3. 48 h after the injection of AlPcS2a the tumours were exposed for 16 min to red light (see below). Immediately after light exposure gelonin (50 μg total amount in a 2 mg/ml solution, i.e. 25 μl) was injected intratumorally. The mice were kept in the dark for 1 week after the injection of AlPcS2a.
The tumours were illuminated with a 150 W halogen lamp (Xenophot HLX64640) filtered with a 580 nm long pass and a 700 nm short pass filter emitting 150 mW/cm^2. The animals were covered with aluminium foil except above the tumour area where a hole in the foil with a diameter 2 mm larger than the tumour diameter had been made. The tumours were exposed to 145 J/cm^2 of light. Tumour volumes were measured two or three times per week as described above. Mice were killed when the tumours reach a diameter of approximately 20 mm. The fraction of tumour-free mice 30 days after illumination was scored (Table 1), and the mean tumour volume in each treatment group was recorded (FIG. 25).

HCT 116 cells [4] = test: Gelonin toxicity after photochemical treatment, protein synthesis by [3H]-leucine incorporation, HCT 116 cells; type: cell-based, human; details: 1 μg/ml gelonin 18 h
Description: (§3) For the treatment with gelonin 25×10^3 cells per well were seeded out into 24-well plates (Nunc, Denmark). The next day 20 μg/ml AlPcS2a was added, and the cells were incubated for 18 h at 37° C. All the procedures after AlPcS2a addition were carried out in subdued light. For the “light before” strategy, the cells were washed from AlPcS2a and incubated in AlPcS2a-free medium for 4 h. Then the cells were exposed to light (as indicated in the figures) before the treatment with 1 μg/ml gelonin for 18 h. For the “light after” strategy the cells were co-incubated with 20 μg/ml AlPcS2a and 1 μg/ml gelonin for 18 h, and washed before exposure to light as indicated in the figure.
(§4) Non-illuminated cells were treated in a similar way except for illumination. The treated cells were washed once with culture medium and after addition of fresh medium incubated at 37° C. before further analysis. Inhibition of protein synthesis was assayed by [^3H]-leucine incorporation into protein 24 h after light exposure. Illumination was performed from a bench with four light tubes (Philips TL 20W/09) and a long pass filter with a cut off at 550-600 nm. The light intensity reaching the cells was 13.5 W/m^2.

THX cells [5] = test: Gelonin toxicity after photochemical treatment, protein synthesis by [3H]-leucine incorporation, THX cells; type: cell-based, human
Description: THX cells were incubated with 20 μg/ml AlPcS2a for 18 hours followed by 4 hours in sensitizer-free medium before exposure to light. The cells were either co-treated with AlPcS2a and 1 μg/ml gelonin, or gelonin (1 μg/ml) was added to the medium immediately after light exposure for 18 hours after which it was removed from the medium as indicated on FIG. 3. Protein synthesis was measured 24 hours after light exposure.
as §3, §4

[6] = with light (145 J/cm^2; "light before" gelonin)

poly-D-lysine was tested, and the “PCI with the "light before" protocol, poly-D-lysine as transfection agent” value (HCT 116 cells [1]; HCT 116 cells, complex with pEGFP-N1, variable irradiation times) was “works well”.

With `Oc1cccc(-c2c3nc(c(-c4cccc(O)c4)c4ccc([nH]4)c(-c4cccc(O)c4)c4nc(c(-c5cccc(O)c5)c5ccc2[nH]5)C=C4)C=C3)c1` [3-THPP] the “increase in GFP expression with this photosensitizer” value (THX cells [2]; 0.25 μg/ml 3-THPP 18 h, light before 1 h pEGFP-N1/polylysine complex) was “only a minor increase in GFP expression”.

For “Gelonin: plant toxin which efficiently inhibits protein synthesis when it is present in the cytosol of cells”, the “effect on tumour cure, in words” value ([3]; with additional light treatment, without AlPcS2a (group 4)) was “no effect”, the “effect on tumour cure, in words” value ([3]; without light (group 3)) was “no effect” and the “% TUMOUR-FREE MICE 30 DAYS AFTER ILLUMINATION” value [3, 6] was 0%. The “FRACTION TUMOUR-FREE MICE 30 DAYS AFTER ILLUMINATION” value [3, 6] was 0/5, the “tumour growth (mean tumour volume)” value ([3]; without light) was “grew as fast as in animals given a placebo treatment” and the “% TUMOUR-FREE MICE 30 DAYS AFTER ILLUMINATION” value ([3]; without light) was 0%. For the same compound, the “FRACTION TUMOUR-FREE MICE 30 DAYS AFTER ILLUMINATION” value ([3]; without light) was 0/8, the “toxic effect of gelonin in itself without the PCI treatment” value (HCT 116 cells [4]) was “no toxic effect” and the “"light before" strategy compared with "light after" method, inhibition of protein synthesis” value (HCT 116 cells [4]; 20 μg/ml AlPcS2a) was “works better”. For the same compound, the “toxic effect of gelonin in itself without the PCI treatment” value (THX cells [5]; 1 μg/ml gelonin 18 h) was “no toxic effect”, the “inhibition of protein synthesis compared with photochemical treatment in the absence of gelonin” value (THX cells [5]; 1 μg/ml gelonin before or after photochemical treatment (20 μg/ml AlPcS2a + light), 24 h after light) was “significantly greater inhibition of protein synthesis” and the “"light before" strategy compared with "light after" method, inhibition of protein synthesis” value (THX cells [5]; 20 μg/ml AlPcS2a, 1 μg/ml gelonin 18 h) was “works better”. The “inhibition of protein synthesis, "light before" relative to "light after"” value (THX cells [5]; highest light dose) was “about 3 fold”.

`O=S(=O)(O)c1ccc(-c2c3nc(c(-c4ccc(S(=O)(=O)O)cc4)c4ccc([nH]4)c(-c4ccc(S(=O)(=O)O)cc4)c4nc(c(-c5ccc(S(=O)(=O)O)cc5)c5ccc2[nH]5)C=C4)C=C3)cc1` [TPPS4] was tested, and the “"light before" approach compared with "light after" approach, poly-L-lysine mediated transfection” value (HCT 116 cells [1]; 75 μg/ml TPPS4, text prints THX cells, heading and FIG. 19 HCT 116 cells) was “works as well as” and the “"light before" approach compared with "light after" approach, poly-L-lysine mediated transfection” value (THX cells [2]) was “works slightly better”.

With `O=S(=O)(O)c1ccc(-c2c3nc(c(-c4ccc(S(=O)(=O)O)cc4)c4ccc([nH]4)c(-c4ccccc4)c4nc(c(-c5ccccc5)c5ccc2[nH]5)C=C4)C=C3)cc1` [TPPS2a, Tetraphenylporphine disulfonate] the “"light before" approach compared with "light after" approach, poly-L-lysine mediated transfection” value (HCT 116 cells [1]; HCT 116 cells, TPPS2a, pEGFP-N1/PLL complex 4 h) was “works as well as” and the “"light before" approach compared with "light after" approach, poly-L-lysine mediated transfection” value (THX cells [2]) was “works as well as”.
